From patent US12479820B2, “Pyridin-3-yl derivatives” (Idorsia Pharmaceuticals Ltd, priority 2019, dated 2025)

Molecular target: T1, human LPA1 receptor (Homo sapiens, UniProt Q92633)
T1 construct: TEV protease site; Gal4-VP16 transcription factor; host or cells: Tango EDG2-bla U2OS cells
Assay: Beta-arrestin recruitment assay to determine IC50 values for human LPAR1
Format: cell-based
Conditions: Tango EDG2-bla U2OS cells, antagonist assay, LPA 18:1 500 nM final
Excerpt: Beta-Arrestin Recruitment Assay to Determine IC50 Values for Human LPAR1
The Tango™ EDG2-bla U2OS cells are obtained from Invitrogen. These cells contain the human LPA1 receptor cDNA linked to a TEV protease site and a Gal4-VP16 transcription factor integrated into the Tango™ GPCR-bla U2OS parental cell line. This parental cell line stably expresses a beta-arrestin/TEV protease fusion protein and the beta-lactamase (bla) reporter gene under the control of a UAS response element. Upon LPA (agonist) binding, LPA1 receptor gets activated, leading to arrestin-protease recruitment and proteolytic release of the transcription factor: The transcription factor then regulates transcription of a beta-lactamase reporter construct, which is measured upon addition of the live-cell substrate.
10′000 Tango™ EDG2-bla U2OS cells are seeded in a 384-well black with clear bottom plate in 30 μl Freestyle 293 Expression Medium (Invitrogen) and incubated for 20 h at 37° C., 5% CO2. For antagonist assays, 5 μl of test compound (dilution series in DMSO/Freestyle 293 Expression medium/0.1% fatty acid free BSA (Sigma)) or buffer control are added per well and incubated for 30 min at 37° C., 5% CO2. 5 μl of LPA 18:1 (500 nM final) (solution in Freestyle 293 Expression medium/0.1% fatty acid free BSA (Sigma)) are added per well and the plate incubated for 16 h at 37° C., 5% CO2. Cells are then loaded with LiveBLAzer-FRET™ B/G Substrate (Invitrogen) for 2 h in the dark and the fluorescence emission at 460 nm and 530 nm is measured using the SynergyMx reader (BioTek). Following the background subtraction from both channels, the 460/530 nm emission ratio for each well is calculated, then plotted and fitted to a 4-parameter logistic function to obtain IC50 values. IC50 is the concentration of antagonist inhibiting 50% of the maximal response.

T1 sequence (Q92633 whole entry, the tested form may be a part): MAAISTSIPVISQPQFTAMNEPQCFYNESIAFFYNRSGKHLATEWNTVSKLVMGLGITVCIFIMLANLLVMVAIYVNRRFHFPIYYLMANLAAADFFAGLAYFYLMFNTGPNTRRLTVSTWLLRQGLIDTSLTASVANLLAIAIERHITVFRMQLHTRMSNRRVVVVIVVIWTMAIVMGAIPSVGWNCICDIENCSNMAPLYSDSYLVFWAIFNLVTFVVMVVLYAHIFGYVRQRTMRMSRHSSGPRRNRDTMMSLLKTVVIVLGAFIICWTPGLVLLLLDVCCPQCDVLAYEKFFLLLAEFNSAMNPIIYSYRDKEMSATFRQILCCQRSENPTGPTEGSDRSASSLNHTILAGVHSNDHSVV

Row | SMILES | IC50 [nM]
1 | CCOc1cc(Cl)ncc1NC(=O)C1(c2ccccc2C(C)C)CN(S(N)(=O)=O)C1 [Example 21-3, N-(6-chloro-4-ethoxypyridin-3-yl)-3-(2-isopropylphenyl)-1-sulfamoylazetidine-3-carboxamide] | 2
2 | COc1cc(Cl)ncc1NC(=O)C1(c2ccccc2C(C)C)CN(C[C@@H](O)CO)C1 [Example 18-12, (R)-N-(6-chloro-4-methoxypyridin-3-yl)-1-(2,3-dihydroxypropyl)-3-(2-isopropylphenyl)azetidine-3-carboxamide] | 28
3 | COc1cc(Cl)ncc1NC(=O)C1(c2ccccc2C(C)C)CN(C2CCC2)C1 [Example 18-8, N-(6-chloro-4-methoxypyridin-3-yl)-1-cyclobutyl-3-(2-isopropylphenyl)azetidine-3-carboxamide] | 3
4 | CCOc1cc(Cl)ncc1NC(=O)C1(c2ccccc2C(C)C)CN(C(=O)CC(C)(C)C(=O)OC)C1 [Example 19-21, methyl 4-(3-((6-chloro-4-ethoxypyridin-3-yl)carbamoyl)-3-(2-isopropylphenyl)azetidin-1-yl)-2,2-dimethyl-4-oxobutanoate] | 72
5 | COCCOc1cc(Cl)ncc1NC(=O)C1(c2ccccc2C(C)C)CN(S(N)(=O)=O)C1 [Example 21-6, N-(6-chloro-4-(2-methoxyethoxy)pyridin-3-yl)-3-(2-isopropylphenyl)-1-sulfamoylazetidine-3-carboxamide] | 44
6 | COc1cc(Cl)ncc1NC(=O)C1(c2ccccc2C(C)C)CN(S(=O)(=O)CCO)C1 [Example 20-3, N-(6-chloro-4-methoxypyridin-3-yl)-1-((2-hydroxyethyl)sulfonyl)-3-(2-isopropylphenyl)azetidine-3-carboxamide] | 21
7 | COc1cc(Cl)ncc1NC(=O)C1(c2ccccc2C(C)C)CCN(S(N)(=O)=O)CC1 [Example 21-8, N-(6-chloro-4-methoxypyridin-3-yl)-4-(2-isopropylphenyl)-1-sulfamoylpiperidine-4-carboxamide] | 16

Now from value to molecule:

Row | IC50 [nM] | SMILES
8 | 9 | COC(=O)c1cnc(N2CC(C(=O)Nc3cnc(Cl)cc3OC)(c3ccccc3C(C)C)C2)cn1 [Example 24-19, methyl 5-(3-((6-chloro-4-methoxypyridin-3-yl)carbamoyl)-3-(2-isopropylphenyl)azetidin-1-yl)pyrazine-2-carboxylate]
9 | 3 | COC[C@H](C)Oc1cc(Cl)ncc1NC(=O)C1(c2ccccc2C(C)C)CN(C(=O)NC2CC2)C1 [Example 22-6, (S)-N3-(6-chloro-4-((1-methoxypropan-2-yl)oxy)pyridin-3-yl)-N1-cyclopropyl-3-(2-isopropylphenyl)azetidine-1,3-dicarboxamide]
10 | 5 | COc1cc(Cl)ncc1NC(=O)C1(c2ccccc2C(C)C)CN(c2ccncn2)C1 [Example 24-11, N-(6-chloro-4-methoxypyridin-3-yl)-3-(2-isopropylphenyl)-1-(pyrimidin-4-yl)azetidine-3-carboxamide]
11 | 18 | COc1cc(Cl)ncc1NC(=O)C1(c2ncccc2C(C)C)CN(C(=O)NC2CC2)C1 [Example 22-7, N3-(6-chloro-4-methoxypyridin-3-yl)-N1-cyclopropyl-3-(3-isopropylpyridin-2-yl)azetidine-1,3-dicarboxamide]
12 | 22 | COC(=O)c1cnc(N2CC(C(=O)Nc3cnc(Cl)cc3OC)(c3ccccc3C(C)C)C2)nc1 [Example 24-22, methyl 2-(3-((6-chloro-4-methoxypyridin-3-yl)carbamoyl)-3-(2-isopropylphenyl)azetidin-1-yl)pyrimidine-5-carboxylate]
13 | 6 | COC(=O)N1CC(C(=O)Nc2cnc(Cl)cc2OC)(c2ccccc2C(C)C)C1 [Example 23-1, Methyl 3-((6-chloro-4-methoxypyridin-3-yl)carbamoyl)-3-(2-isopropylphenyl)azetidine-1-carboxylate]
14 | 29 | COc1cc(Cl)ncc1NC(=O)C1(c2ccccc2C(C)C)CN(c2cc(Cl)nc(C)n2)C1 [Example 24-15, 1-(6-chloro-2-methylpyrimidin-4-yl)-N-(6-chloro-4-methoxypyridin-3-yl)-3-(2-isopropylphenyl)azetidine-3-carboxamide]
